Assays:
[1] = patient undergoing continuous cyclic peritoneal dialysis; severe recurrent metabolic alkalemia secondary to it; cited from earlier work
brain tissue = conditions: rat, aqueous 20 mM/l, parenteral

CC(O)C(=O)O (racemic) [d,l-lactate]
adverse effect of inclusion in routine dialysis fluids [1]: encephalopathy

C[C@@H](O)C(=O)O [d-lactate]
effect on brain tissue (brain tissue): swelling of brain tissue is observed
outcome with continued administration (coma, cerebral edema, death) (brain tissue): coma develops, the cerebral edema worsens and death ensues

C[C@H](O)C(=O)O [l-lactate]
outcome with continued administration (coma, cerebral edema, death) (brain tissue): does not cause coma or death
